Consider four molecules from patent publication US6642217B2, “Triterpenes having human antifungal and antiyeast activity” (Naturtek, LLC, priority 2000, dated 2003).

The subject of one assay is Trichophyton tonsuran. As to the kind of experiment: Agar dilution method, growth on Sabouraud dextrose agar slants. The assay is classed as cell-based, Trichophyton tonsurans. On the set-up: key: +++: Maximum Fungal Growth; ++: Moderate Fungal Growth; +: Minimum Fungal Growth; +/−: Very little Fungal Growth; −: No Fungal Growth. Particulars: 12th day after inoculation. Here is the method:
(§1) Agar dilution method. Sabouraud Dextrose Agar (Difco Laboratories, Michigan) was prepared according to the manufacturer's instructions. Five ml was dispensed in a 100×25 mm tube and autoclaved. To each tube containing 5.0 ml of liquid agar at 45° C., 0.5, 0.25, 0.12, or 0.063 ml of a DMSO solution of the compound was added to give the final indicated concentrations in Table 2. The agar was then solidified in slants. Fungal cultures were inoculated. The slants were incubated at 25-28° C. for 10-12 days, and the growth of the fungus was recorded every second day.
Background: In agar dilution the substance is mixed into plates at graded concentrations.

Assay [1] deals with Pityrosporum ovale. As to the kind of experiment: Direct addition into the Pityrosporum agar. The class given is cell-based. Also on record: key to Pityrosporum ovale growth: +++: Maximum Growth; ++: Moderate Growth; +: Minimum Growth; +/−: Very Little Growth; −: No Growth. Particulars: 4 mg/ml in the agar; 18 hours after inoculation. Here is the method: Direct addition method. Sabouraud dextrose agar was prepared according to the manufacturer's instructions and 5.0 ml was dispensed in each 100×25 mm tube. The tubes were autoclaved. To each tube containing 5.0 ml of liquid agar at 45° C., 20 mg of solid test compound was added, to give a final concentration of 4 mg/ml. The agar was solidified in slants. The fungal cultures were then innoculated. […]

Assay [2] relates to Microsporum audouinni. As to the kind of experiment: Agar dilution method, growth on Sabouraud dextrose agar slants. The note with it: 12th day after inoculation. Also on record: key: +++: Maximum Fungal Growth; ++: Moderate Fungal Growth; +: Minimum Fungal Growth; +/−: Very little Fungal Growth; −: No Fungal Growth. The assay is classed as cell-based, Microsporum audouinii. Here is the method:
as §1

Assay [3] has as its system Trichophyton rubrum. Described as above. The note with it: 12th day after inoculation. Also on record: key: +++: Maximum Fungal Growth; ++: Moderate Fungal Growth; +: Minimum Fungal Growth; +/−: Very little Fungal Growth; −: No Fungal Growth. The assay is classed as cell-based. Here is the method: as §1
The test system of another assay is Microsporum gypseum. Described as above. The class given is cell-based. On the set-up: key: +++: Maximum Fungal Growth; ++: Moderate Fungal Growth; +: Minimum Fungal Growth; +/−: Very little Fungal Growth; −: No Fungal Growth. Particulars: 12th day after inoculation. Here is the method: as §1
Assay [4] deals with Microsporum canis. The description is as above. The assay is classed as cell-based. Also on record: key: +++: Maximum Fungal Growth; ++: Moderate Fungal Growth; +: Minimum Fungal Growth; +/−: Very little Fungal Growth; −: No Fungal Growth. Particulars: 12th day after inoculation. As for the experimental part:
as §1

The test system of assay [5] is Pityrosporum ovale. The assay is described as above. Particulars: 12th day after inoculation. On the set-up: key: +++: Maximum Fungal Growth; ++: Moderate Fungal Growth; +: Minimum Fungal Growth; +/−: Very little Fungal Growth; −: No Fungal Growth. The assay is classed as cell-based. As for the experimental part: as §1
Assay [6] deals with Trichophyton rubrum. As to the kind of experiment: Direct addition method, solid compound in Sabouraud dextrose agar. The assay is classed as cell-based. On the set-up: key: +++: Maximum Fungal Growth; ++: Moderate Fungal Growth; +: Minimum Fungal Growth; +/−: Very little Fungal Growth; −: No Fungal Growth. The note with it: 4 mg/mL of agar; 12th day after inoculation. Here is the method: (§2) Direct addition method. Sabouraud dextrose agar was prepared according to the manufacturer's instructions and 5.0 ml was dispensed in each 100×25 mm tube. The tubes were autoclaved. To each tube containing 5.0 ml of liquid agar at 45° C., 20 mg of solid test compound was added, to give a final concentration of 4 mg/ml. The agar was solidified in slants. The fungal cultures were then innoculated. The slants were incubated at 25-28 ° C. for 10-12 days, and the growth of the fungus was recorded every second day. The results in Table 2 indicate growth at the 12th day of inoculation.

In assay [7] the test system is Microsporum canis. The description is as above. The class given is cell-based. On the set-up: key: +++: Maximum Fungal Growth; ++: Moderate Fungal Growth; +: Minimum Fungal Growth; +/−: Very little Fungal Growth; −: No Fungal Growth. The note with it: 4 mg/mL of agar; 12th day after inoculation. As for the experimental part:
as §2

The test system of assay [8] is Epidermophyton floccosum. Described as above. The class given is cell-based. On the set-up: key: +++: Maximum Fungal Growth; ++: Moderate Fungal Growth; +: Minimum Fungal Growth; +/−: Very little Fungal Growth; −: No Fungal Growth. Particulars: 4 mg/mL of agar; 12th day after inoculation. As for the experimental part:
as §2

The subject of assay [9] is Pityrosporum ovale. The description is as above. The class given is cell-based. On the set-up: key: +++: Maximum Fungal Growth; ++: Moderate Fungal Growth; +: Minimum Fungal Growth; +/−: Very little Fungal Growth; −: No Fungal Growth. The note with it: 4 mg/mL of agar; 12th day after inoculation. As for the experimental part:
as §2

For assay [10], the system named is Trichophyton mentagrophyte. As to the kind of experiment: Agar dilution method, growth on Sabouraud dextrose agar slants. Particulars: 12th day after inoculation. On the set-up: key to Fungal growth: +++: Maximum Fungal Growth; ++: Moderate Fungal Growth; +: Minimum Fungal Growth; +/−: Very little Fungal Growth; −: No Fungal Growth. The class given is cell-based, Trichophyton mentagrophytes. As for the experimental part: as §1

The test system of a further assay is Microsporum audouinii. As to the kind of experiment: Summary of anti-fungal assays (direct addition, agar dilution, liquid culture). The class given is cell-based. Particulars: stated in words (Tables 1a/1b, text to Table 5). Here is the method:
(§3) This example summarizes the results of various other assays of the anti-fungal activity of betulin derivatives. Table 5 summarizes results using different assay methods—direct addition, agar dilution, and direct addition to liquid culture, as disclosed in the previous three Examples. In some cases, only one type of assay was done with a compound. In other cases, the compound was tested by multiple assays.

Assay [11] has as its system Epidermophyton floccosum. As to the kind of experiment: Agar dilution method, growth on Sabouraud dextrose agar slants. The class given is cell-based. On the set-up: key to Fungal growth: +++: Maximum Fungal Growth; ++: Moderate Fungal Growth; +: Minimum Fungal Growth; +/−: Very little Fungal Growth; −: No Fungal Growth. The note with it: 12th day after inoculation. As for the experimental part:
as §1

The subject of assay [12] is Microsporum audouinni. As to the kind of experiment: Direct addition method, solid compound in Sabouraud dextrose agar. The assay is classed as cell-based, Microsporum audouinii. On the set-up: key to Fungal growth: +++: Maximum Fungal Growth; ++: Moderate Fungal Growth; +: Minimum Fungal Growth; +/−: Very little Fungal Growth; −: No Fungal Growth. The note with it: for Fungal growth: 4 mg/mL of agar, 12th day after inoculation; for best anti-fungal or anti-yeast activity by the direct addition method: against Microsporum audouinii. As for the experimental part:
as §2

Assay [13] relates to Epidermophyton floccosum. As to the kind of experiment: Summary of anti-fungal assays (direct addition, agar dilution, liquid culture). The assay is classed as cell-based. The note with it: stated in words (Tables 1a/1b, text to Table 5). As for the experimental part: as §3

With `C=C(C)C1CCC2(COC(=O)CCC(=O)O)CC[C@@]3(C)C(CCC4[C@@]5(C)CCC(O)C(C)(C)C5CC[C@]43C)C12` (stereo partly shown) [Betulin-28-succinate], the Fungal growth entry was “++” in the assay on Trichophyton tonsuran (125 μg/ml); “+” with Trichophyton tonsuran (250 μg/ml); “+” in the assay on Trichophyton tonsuran (500 μg/ml); “−” in the assay on Trichophyton tonsuran (1000 μg/ml); “+” in the assay on Microsporum audouinni [2] (125 μg/ml); “+/−” with Microsporum audouinni [2] (250 μg/ml). Also, the Fungal growth entry is on record as “−” with Microsporum audouinni [2] (500 μg/ml); “−” with Microsporum audouinni [2] (1000 μg/ml); “+” in the assay with Trichophyton rubrum [3] (125 μg/ml); “+” with Trichophyton rubrum [3] (250 μg/ml); “+” in the assay on Trichophyton rubrum [3] (500 μg/ml); “−” with Trichophyton rubrum [3] (1000 μg/ml). The Fungal growth result with Microsporum gypseum (125 μg/ml) is “++”; in the assay with Microsporum gypseum (250 μg/ml), “+”; with Microsporum gypseum (500 μg/ml), “+”; in the assay on Microsporum gypseum (1000 μg/ml), “−”; in the assay on Microsporum canis [4] (125 μg/ml) it was “+”; in the assay on Microsporum canis [4] (250 μg/ml), “+”. Moreover, the Fungal growth result in the assay on Microsporum canis [4] (500 μg/ml) is on record as “+”; in the assay with Microsporum canis [4] (1000 μg/ml), “−”; with Pityrosporum ovale [5] (125 μg/ml) it was “+++”; with Pityrosporum ovale [5] (250 μg/ml), “+++”; with Pityrosporum ovale [5] (500 μg/ml), “+++”; in the assay on Pityrosporum ovale [5] (1000 μg/ml) it was “++”. Moreover, the Fungal growth entry in the assay with Trichophyton rubrum [6] was “+”; in the assay on Microsporum canis [7], “+”; in the assay with Epidermophyton floccosum [8], “−”; in the assay with Pityrosporum ovale [9] it was “−”; in [10] (125 μg/ml), “++”; in assay [10] (250 μg/ml) it was “+”. For the same molecule, the Fungal growth result is recorded as “+” in assay [10] (500 μg/ml); “−” in assay [10] (1000 μg/ml); “++” with Epidermophyton floccosum [11] (125 μg/ml); “+” in the assay with Epidermophyton floccosum [11] (250 μg/ml); “+” in the assay on Epidermophyton floccosum [11] (500 μg/ml); “−” in the assay with Epidermophyton floccosum [11] (1000 μg/ml). Moreover, in the assay with Microsporum audouinni [12], the Fungal growth entry was “−”. The Pityrosporum ovale growth entry in the assay on Pityrosporum ovale [1] is “+”. Also, the “Active against Microsporum audouinii” value in the assay with Microsporum audouinii was “Microsporum audouinii”. In addition, the “best anti-fungal or anti-yeast activity by the direct addition method” value in the assay on Microsporum audouinni [12] is listed as “against Microsporum audouinii”.

For `CC1(C)CCC23CC[C@@]4(C)C(CCC5[C@@]6(C)CCC(OC(=O)CCC(=O)O)C(C)(C)C6CC[C@]54C)C2C1OC3` (stereo partly shown) [Allobetulin-3-succinate], the Fungal growth entry in the assay on Trichophyton tonsuran (62.5 μg/ml) is “++”; in the assay with Trichophyton tonsuran (125 μg/ml) it was “++”; in the assay on Trichophyton tonsuran (250 μg/ml), “+”; in the assay on Trichophyton tonsuran (500 μg/ml), “−”; in the assay on Microsporum audouinni [2] (62.5 μg/ml) it was “++”; in the assay on Microsporum audouinni [2] (125 μg/ml), “++”. Besides, the Fungal growth result is on record as “−” with Microsporum audouinni [2] (250 μg/ml); “−” in the assay with Microsporum audouinni [2] (500 μg/ml); “++” in the assay with Trichophyton rubrum [3] (62.5 μg/ml); “++” with Trichophyton rubrum [3] (125 μg/ml); “−” with Trichophyton rubrum [3] (250 μg/ml); “−” in the assay with Trichophyton rubrum [3] (500 μg/ml). Also, the Fungal growth result was “+++” in the assay on Microsporum gypseum (62.5 μg/ml); “++” with Microsporum gypseum (125 μg/ml); “+” in the assay on Microsporum gypseum (250 μg/ml); “−” in the assay with Microsporum gypseum (500 μg/ml); “++” in the assay on Microsporum canis [4] (62.5 μg/ml); “++” with Microsporum canis [4] (125 μg/ml). The Fungal growth result in the assay on Microsporum canis [4] (250 μg/ml) was “−”; in the assay on Microsporum canis [4] (500 μg/ml) it was “−”; with Pityrosporum ovale [5] (62.5 μg/ml), “+++”; with Pityrosporum ovale [5] (125 μg/ml) it was “+++”; in the assay on Pityrosporum ovale [5] (250 μg/ml) it was “+++”; in the assay on Pityrosporum ovale [5] (500 μg/ml), “+”. The Fungal growth entry in the assay with Trichophyton rubrum [6] is reported as “+”; with Microsporum canis [7] it was “+”; in the assay on Epidermophyton floccosum [8], “−”; with Pityrosporum ovale [9], “−”; in assay [10] (62.5 μg/ml), “++”; in assay [10] (125 μg/ml) it was “+”. The Fungal growth result is “+/−” in assay [10] (250 μg/ml); “−” in assay [10] (500 μg/ml); “++” with Epidermophyton floccosum [11] (62.5 μg/ml); “++” in the assay with Epidermophyton floccosum [11] (125 μg/ml); “+” in the assay on Epidermophyton floccosum [11] (250 μg/ml); “−” with Epidermophyton floccosum [11] (500 μg/ml). Moreover, the Fungal growth result with Microsporum audouinni [12] is reported as “+”. The Pityrosporum ovale growth result in the assay with Pityrosporum ovale [1] was “+”. For the same molecule, in the assay on Microsporum audouinii, the “Active against Microsporum audouinii” value was “Microsporum audouinii”.

As to `C=C(C)[C@@H]1CC[C@]2(COC(=O)/C=C\C(=O)O)CC[C@]3(C)[C@H](CC[C@@H]4[C@@]5(C)CC[C@H](OC(=O)/C=C\C(=O)O)C(C)(C)[C@@H]5CC[C@]43C)[C@@H]12` [Betulin-3,28-dimaleate], in the assay with Pityrosporum ovale [1], the Pityrosporum ovale growth result is “+”. In addition, the Fungal growth entry with Trichophyton rubrum [6] is “+”; in the assay on Microsporum canis [7] it was “+”; in the assay with Epidermophyton floccosum [8] it was “−”; with Pityrosporum ovale [9] it was “−”; in the assay on Microsporum audouinni [12], “−”. Moreover, the “Active against Microsporum audouinii” value in the assay on Microsporum audouinii is given as “Microsporum audouinii”. For the same molecule, in the assay with Microsporum audouinni [12], the “best anti-fungal or anti-yeast activity by the direct addition method” value was “against Microsporum audouinii”.

Regarding `C=C(C)C1CCC2(COC(=O)COCC(=O)O)CCC3(C)C(CCC4C5(C)CCC(O)C(C)(C)C5CCC43C)C12` (stereo not shown) [Betulin-28-diglycolate], in the assay with Epidermophyton floccosum [13], the “Active against Epidermophyton floccosum” value is “against Epidermophyton floccosum”.
